Assay results published in PubChem BioAssay (NCI).
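Test compounds were applied to cells in 96-well plates for 48 hours at 5 doses. GI50 = concentration required for 50% inhibition of growth. The concentration for full growth arrest is given as TGI.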

Tests used:
Experiment in all cases: inhibition of tumour cell growth, NCI panel, 48 h
MDA-MB-231 breast = tested on: MDA-MB-231 breast
UO-31 renal = tested on: UO-31 renal
SF-295 CNS = tested on: SF-295 CNS
SK-MEL-2 melanoma = tested on: SK-MEL-2 melanoma
RPMI-8226 leukemia = tested on: RPMI-8226 leukemia
HS 578T breast = tested on: HS 578T breast
MDA-MB-435 = tested on: MDA-MB-435
TK-10 renal = tested on: TK-10 renal
UACC-257 melanoma = tested on: UACC-257 melanoma
COLO 205 colon = tested on: COLO 205 colon
HL-60(TB) leukemia = tested on: HL-60(TB) leukemia
RXF 393 renal = tested on: RXF 393 renal
SW-620 colon = tested on: SW-620 colon
HOP-62 NSCLC = tested on: HOP-62 NSCLC
SNB-75 CNS = tested on: SNB-75 CNS
MOLT-4 leukemia = tested on: MOLT-4 leukemia
K-562 leukemia = tested on: K-562 leukemia
DU-145 prostate = tested on: DU-145 prostate
OVCAR-4 ovarian = tested on: OVCAR-4 ovarian
A498 renal = tested on: A498 renal
U251 CNS = tested on: U251 CNS
HCT-116 colon = tested on: HCT-116 colon
HT29 colon = tested on: HT29 colon
A549 NSCLC = tested on: A549 NSCLC
SF-268 CNS = tested on: SF-268 CNS
CCRF-CEM leukemia = tested on: CCRF-CEM leukemia
NCI-H522 lung = tested on: NCI-H522 lung
OVCAR-5 ovarian = tested on: OVCAR-5 ovarian
SK-OV-3 ovarian = tested on: SK-OV-3 ovarian
SR leukemia = tested on: SR leukemia
IGROV1 ovarian = tested on: IGROV1 ovarian
LOX IMVI melanoma = tested on: LOX IMVI melanoma
NCI/ADR-RES ovarian = tested on: NCI/ADR-RES ovarian
SK-MEL-5 melanoma = tested on: SK-MEL-5 melanoma
PC-3 prostate = tested on: PC-3 prostate
CAKI-1 renal = tested on: CAKI-1 renal
HCT-15 colon = tested on: HCT-15 colon
HCC-2998 colon = tested on: HCC-2998 colon
M14 melanoma = tested on: M14 melanoma
HOP-92 NSCLC = tested on: HOP-92 NSCLC
NCI-H23 lung = tested on: NCI-H23 lung
MALME-3M melanoma = tested on: MALME-3M melanoma
NCI-H460 lung = tested on: NCI-H460 lung
786-0 renal = tested on: 786-0 renal
NCI-H226 lung = tested on: NCI-H226 lung
ACHN renal = tested on: ACHN renal
SNB-19 CNS = tested on: SNB-19 CNS
SN12C renal = tested on: SN12C renal
SF-539 CNS = tested on: SF-539 CNS
UACC-62 melanoma = tested on: UACC-62 melanoma
BT-549 breast = tested on: BT-549 breast
SK-MEL-28 melanoma = tested on: SK-MEL-28 melanoma
MCF7 breast = tested on: MCF7 breast
KM12 colon = tested on: KM12 colon
OVCAR-8 ovarian = tested on: OVCAR-8 ovarian
OVCAR-3 ovarian = tested on: OVCAR-3 ovarian
T-47D breast = tested on: T-47D breast

Compound: C[CH2][Pb]([CH2]C)([CH2]C)[O]C(=O)COC
- GI50 (MDA-MB-231 breast): 1130 nM
- TGI (MDA-MB-231 breast): 3370 nM
- GI50 (UO-31 renal): 567 nM
- TGI (UO-31 renal): 2950 nM
- GI50 (SF-295 CNS): 1330 nM
- TGI (SF-295 CNS): 3060 nM
- GI50 (SK-MEL-2 melanoma): 332 nM
- TGI (SK-MEL-2 melanoma): 879 nM
- GI50 (RPMI-8226 leukemia): 421 nM
- TGI (RPMI-8226 leukemia): 3000 nM
- GI50 (HS 578T breast): 517 nM
- TGI (HS 578T breast): 4570 nM
- GI50 (MDA-MB-435): 182 nM
- TGI (MDA-MB-435): 409 nM
- GI50 (TK-10 renal): 832 nM
- TGI (TK-10 renal): 3770 nM
- GI50 (UACC-257 melanoma): 571 nM
- TGI (UACC-257 melanoma): 3260 nM
- GI50 (COLO 205 colon): 1350 nM
- TGI (COLO 205 colon): 2960 nM
- GI50 (HL-60(TB) leukemia): 634 nM
- TGI (HL-60(TB) leukemia): 2450 nM
- GI50 (RXF 393 renal): 232 nM
- TGI (RXF 393 renal): 783 nM
- GI50 (SW-620 colon): 333 nM
- TGI (SW-620 colon): 1330 nM
- GI50 (HOP-62 NSCLC): 1670 nM
- TGI (HOP-62 NSCLC): 4060 nM
- GI50 (SNB-75 CNS): 304 nM
- TGI (SNB-75 CNS): 2850 nM
- GI50 (MOLT-4 leukemia): 1750 nM
- TGI (MOLT-4 leukemia): 5970 nM
- GI50 (K-562 leukemia): 499 nM
- TGI (K-562 leukemia): 5770 nM
- GI50 (DU-145 prostate): 1490 nM
- TGI (DU-145 prostate): 5680 nM
- GI50 (OVCAR-4 ovarian): 541 nM
- TGI (OVCAR-4 ovarian): 2910 nM
- GI50 (A498 renal): 277 nM
- TGI (A498 renal): 2290 nM
- GI50 (U251 CNS): 1290 nM
- TGI (U251 CNS): 2940 nM
- GI50 (HCT-116 colon): 578 nM
- TGI (HCT-116 colon): 1970 nM
- GI50 (HT29 colon): 1430 nM
- TGI (HT29 colon): 3380 nM
- GI50 (A549 NSCLC): 1360 nM
- TGI (A549 NSCLC): 6820 nM
- GI50 (SF-268 CNS): 1750 nM
- TGI (SF-268 CNS): 7020 nM
- GI50 (CCRF-CEM leukemia): 534 nM
- TGI (CCRF-CEM leukemia): 6840 nM
- GI50 (NCI-H522 lung): 892 nM
- TGI (NCI-H522 lung): 2480 nM
- GI50 (OVCAR-5 ovarian): 1460 nM
- TGI (OVCAR-5 ovarian): 3770 nM
- GI50 (SK-OV-3 ovarian): 1550 nM
- TGI (SK-OV-3 ovarian): 4930 nM
- GI50 (SR leukemia): 328 nM
- TGI (SR leukemia): 5070 nM
- GI50 (IGROV1 ovarian): 1150 nM
- TGI (IGROV1 ovarian): 6330 nM
- GI50 (LOX IMVI melanoma): 815 nM
- TGI (LOX IMVI melanoma): 2280 nM
- GI50 (NCI/ADR-RES ovarian): 785 nM
- TGI (NCI/ADR-RES ovarian): 12000 nM
- GI50 (SK-MEL-5 melanoma): 427 nM
- TGI (SK-MEL-5 melanoma): 1620 nM
- GI50 (PC-3 prostate): 795 nM
- TGI (PC-3 prostate): 2510 nM
- GI50 (CAKI-1 renal): 1060 nM
- TGI (CAKI-1 renal): 8040 nM
- GI50 (HCT-15 colon): 737 nM
- TGI (HCT-15 colon): 4330 nM
- GI50 (HCC-2998 colon): 907 nM
- TGI (HCC-2998 colon): 2390 nM
- GI50 (M14 melanoma): 400 nM
- TGI (M14 melanoma): 1900 nM
- GI50 (HOP-92 NSCLC): 292 nM
- TGI (HOP-92 NSCLC): 3280 nM
- GI50 (NCI-H23 lung): 1010 nM
- TGI (NCI-H23 lung): 5070 nM
- GI50 (MALME-3M melanoma): 337 nM
- TGI (MALME-3M melanoma): 3760 nM
- GI50 (NCI-H460 lung): 951 nM
- TGI (NCI-H460 lung): 10400 nM
- GI50 (786-0 renal): 1220 nM
- TGI (786-0 renal): 3110 nM
- GI50 (NCI-H226 lung): 1620 nM
- TGI (NCI-H226 lung): 6170 nM
- GI50 (ACHN renal): 836 nM
- TGI (ACHN renal): 10200 nM
- GI50 (SNB-19 CNS): 1970 nM
- TGI (SNB-19 CNS): 9060 nM
- GI50 (SN12C renal): 2050 nM
- TGI (SN12C renal): 9190 nM
- GI50 (SF-539 CNS): 1230 nM
- TGI (SF-539 CNS): 3280 nM
- GI50 (UACC-62 melanoma): 407 nM
- TGI (UACC-62 melanoma): 3470 nM
- GI50 (BT-549 breast): 837 nM
- TGI (BT-549 breast): 3610 nM
- GI50 (SK-MEL-28 melanoma): 552 nM
- TGI (SK-MEL-28 melanoma): 2900 nM
- GI50 (MCF7 breast): 469 nM
- TGI (MCF7 breast): 7530 nM
- GI50 (KM12 colon): 817 nM
- TGI (KM12 colon): 6100 nM
- GI50 (OVCAR-8 ovarian): 1910 nM
- TGI (OVCAR-8 ovarian): 9030 nM
- GI50 (OVCAR-3 ovarian): 441 nM
- TGI (OVCAR-3 ovarian): 1860 nM
- GI50 (T-47D breast): 317 nM
- TGI (T-47D breast): 2530 nM
